This is an account of results in PubChem BioAssay (NCI).

Holding throughout (assay): NCI tumour cell line growth inhibition, 48 h
The test system of assay [1] is P388 leukemia.
Assay [2] has as its system P388/ADR leukemia.
The subject of assay [3] is SN12K1 renal.

Molecules are shown by their SMILES.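 Step 1: Grow cells in 96-well plates. Step 2: Expose to compound for 48 hours at 5 concentrations. Step 3: Interpolate endpoints linearly; if unreached, use highest concentration. TGI marks complete inhibition of growth.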 Some results are limits rather than exact numbers.

`CC12CCC(C(=O)N3CC=CCC3)(OC1=O)C2(C)C` (stereo not given): the TGI in assay [1], in assay [2] and in assay [3] was over 100 µM in each case.

As for `O=C(O)C1Cc2c([nH]c3ccccc23)C=N1` (stereo not given), the TGI in assay [1] and in assay [2] was over 100 µM throughout.
